# Reference: ChEMBL document CHEMBL1201862, “PubChem BioAssay data set” (2004)
#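 These data come from cells grown in 96-well plates and exposed to compound for 48 hours at five concentrations. GI50 = concentration required for 50% inhibition of growth.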 Active and inactive are the calls of the source. Cut-off read from the data, not from the text of the source: active = GI50 up to about 1.1 µM and inactive = higher.
# What was measured:
# Test in all cases: DTP human tumour cell line panel, 48 h
# DU-145 = system: DU-145
# HCT-15 = system: HCT-15
# RPMI-8226 = system: RPMI-8226
# NCI-H460 = system: NCI-H460
# UO-31 = system: UO-31
# SK-MEL-5 = system: SK-MEL-5
# HCT-116 = system: HCT-116
# HL-60 = system: HL-60
# SN12C = system: SN12C
# SK-MEL-2 = system: SK-MEL-2
# HOP-62 = system: HOP-62
# HCC 2998 = system: HCC 2998
# U-251 = system: U-251
# TK-10 = system: TK-10
# BT-549 = system: BT-549
# EKVX = system: EKVX
# MCF7 = system: MCF7
# A549 = system: A549
# NCI/ADR-RES = system: NCI/ADR-RES
# T47D = system: T47D
# ACHN = system: ACHN
# COLO 205 = system: COLO 205
# Hs-578T = system: Hs-578T
# UACC-62 = system: UACC-62
# MOLT-4 = system: MOLT-4
# OVCAR-4 = system: OVCAR-4
# IGROV-1 = system: IGROV-1
# UACC-257 = system: UACC-257
# SNB-19 = system: SNB-19
# PC-3 = system: PC-3
# HT-29 = system: HT-29
# SK-OV-3 = system: SK-OV-3
# RXF 393 = system: RXF 393
# KM12 = system: KM12
# 786-0 = system: 786-0
# NCI-H226 = system: NCI-H226
# SF-295 = system: SF-295
# SNB-75 = system: SNB-75
# MDA-N = system: MDA-N
# MDA-MB-231 = system: MDA-MB-231
# CAKI-1 = system: CAKI-1
# K562 = system: K562
# OVCAR-8 = system: OVCAR-8
# CCRF-CEM = system: CCRF-CEM
# MDA-MB-435 = system: MDA-MB-435
# NCI-H522 = system: NCI-H522
# SK-MEL-28 = system: SK-MEL-28
# Malme-3M = system: Malme-3M
# OVCAR-3 = system: OVCAR-3
# OVCAR-5 = system: OVCAR-5
# M14 = system: M14
# SW-620 = system: SW-620
# SF-268 = system: SF-268
# NCI-H23 = system: NCI-H23
# A498 = system: A498
# HOP-92 = system: HOP-92
smiles,measurement,setting,value
CC(=O)N1c2cc(/N=N/N(C)C)ccc2NC(=O)CC1C (stereo unspecified),GI50,DU-145,> 100 µM (inactive)
same,GI50,HCT-15,> 100 µM
same,GI50,RPMI-8226,> 100 µM (inactive)
same,GI50,NCI-H460,> 100 µM (inactive)
same,GI50,UO-31,> 100 µM (inactive)
same,GI50,SK-MEL-5,> 100 µM (inactive)
same,GI50,HCT-116,> 100 µM (inactive)
same,GI50,HL-60,> 100 µM (inactive)
same,GI50,SN12C,> 100 µM (inactive)
same,GI50,SK-MEL-2,> 100 µM (inactive)
same,GI50,HOP-62,> 100 µM (inactive)
same,GI50,HCC 2998,> 100 µM (inactive)
same,GI50,U-251,> 100 µM (inactive)
same,GI50,TK-10,> 100 µM (inactive)
same,GI50,BT-549,> 100 µM (inactive)
same,GI50,EKVX,> 100 µM (inactive)
same,GI50,MCF7,> 100 µM (inactive)
same,GI50,A549,> 100 µM (inactive)
same,GI50,NCI/ADR-RES,> 100 µM (inactive)
same,GI50,T47D,> 100 µM (inactive)
same,GI50,ACHN,> 100 µM (inactive)
same,GI50,COLO 205,> 100 µM (inactive)
same,GI50,Hs-578T,> 100 µM (inactive)
same,GI50,UACC-62,> 100 µM (inactive)
same,GI50,MOLT-4,> 100 µM (inactive)
same,GI50,OVCAR-4,> 100 µM (inactive)
same,GI50,IGROV-1,> 100 µM (inactive)
same,GI50,UACC-257,> 100 µM (inactive)
same,GI50,SNB-19,> 100 µM (inactive)
same,GI50,PC-3,> 100 µM (inactive)
same,GI50,HT-29,> 100 µM (inactive)
same,GI50,SK-OV-3,> 100 µM (inactive)
same,GI50,RXF 393,> 100 µM (inactive)
same,GI50,KM12,> 100 µM (inactive)
same,GI50,786-0,> 100 µM (inactive)
same,GI50,NCI-H226,> 100 µM (inactive)
same,GI50,SF-295,> 100 µM (inactive)
same,GI50,SNB-75,> 100 µM (inactive)
same,GI50,MDA-N,> 100 µM (inactive)
same,GI50,MDA-MB-231,> 100 µM (inactive)
same,GI50,CAKI-1,> 100 µM (inactive)
same,GI50,K562,> 100 µM (inactive)
same,GI50,OVCAR-8,> 100 µM (inactive)
same,GI50,CCRF-CEM,> 100 µM (inactive)
same,GI50,MDA-MB-435,> 100 µM (inactive)
same,GI50,NCI-H522,> 100 µM (inactive)
same,GI50,SK-MEL-28,> 100 µM (inactive)
same,GI50,Malme-3M,> 100 µM (inactive)
same,GI50,OVCAR-3,> 100 µM (inactive)
same,GI50,OVCAR-5,> 100 µM (inactive)
same,GI50,M14,> 100 µM (inactive)
same,GI50,SW-620,> 100 µM (inactive)
same,GI50,SF-268,> 100 µM (inactive)
same,GI50,NCI-H23,> 100 µM (inactive)
CC(C)(C)OC(=O)NCCC1CNc2ccccc21 (stereo unspecified),GI50,DU-145,> 100 µM (inactive)
same,GI50,HCT-15,> 100 µM
same,GI50,RPMI-8226,> 100 µM (inactive)
same,GI50,NCI-H460,> 100 µM (inactive)
same,GI50,UO-31,> 100 µM (inactive)
same,GI50,SK-MEL-5,> 100 µM (inactive)
same,GI50,HCT-116,> 100 µM (inactive)
same,GI50,SK-MEL-2,> 100 µM (inactive)
same,GI50,HOP-62,> 100 µM (inactive)
same,GI50,HCC 2998,> 100 µM (inactive)
same,GI50,A498,> 100 µM (inactive)
same,GI50,U-251,> 100 µM (inactive)
same,GI50,TK-10,> 100 µM (inactive)
same,GI50,BT-549,> 100 µM (inactive)
same,GI50,EKVX,> 100 µM (inactive)
same,GI50,MCF7,> 100 µM (inactive)
same,GI50,A549,> 100 µM (inactive)
same,GI50,NCI/ADR-RES,> 100 µM (inactive)
same,GI50,T47D,> 100 µM (inactive)
same,GI50,ACHN,> 100 µM (inactive)
same,GI50,COLO 205,> 100 µM (inactive)
same,GI50,Hs-578T,> 100 µM (inactive)
same,GI50,UACC-62,> 100 µM (inactive)
same,GI50,MOLT-4,> 100 µM (inactive)
same,GI50,OVCAR-4,> 100 µM (inactive)
same,GI50,IGROV-1,> 100 µM (inactive)
same,GI50,UACC-257,> 100 µM (inactive)
same,GI50,SNB-19,> 100 µM (inactive)
same,GI50,PC-3,> 100 µM (inactive)
same,GI50,HT-29,> 100 µM (inactive)
same,GI50,SK-OV-3,> 100 µM (inactive)
same,GI50,RXF 393,> 100 µM (inactive)
same,GI50,KM12,> 100 µM (inactive)
same,GI50,786-0,> 100 µM (inactive)
same,GI50,SF-295,> 100 µM (inactive)
same,GI50,SNB-75,> 100 µM (inactive)
same,GI50,MDA-N,> 100 µM (inactive)
same,GI50,MDA-MB-231,> 100 µM (inactive)
same,GI50,CAKI-1,> 100 µM (inactive)
same,GI50,K562,> 100 µM (inactive)
same,GI50,OVCAR-8,> 100 µM (inactive)
same,GI50,MDA-MB-435,> 100 µM (inactive)
same,GI50,NCI-H522,> 100 µM (inactive)
same,GI50,HOP-92,93.1 µM (inactive)
same,GI50,SK-MEL-28,> 100 µM (inactive)
same,GI50,Malme-3M,> 100 µM (inactive)
same,GI50,OVCAR-3,> 100 µM (inactive)
same,GI50,OVCAR-5,> 100 µM (inactive)
same,GI50,M14,> 100 µM (inactive)
same,GI50,SW-620,> 100 µM (inactive)
same,GI50,SF-268,> 100 µM (inactive)
same,GI50,NCI-H23,> 100 µM (inactive)
